From ChEMBL document CHEMBL4316582, “Nitro-Group-Containing Drugs” (J Med Chem, 2019)
pIC50: −log10 of the molar value. ≈ marks a conversion by molar mass, not a printed value.

What was measured:
NCI-H460 [1] = experiment: Antiproliferative activity against human NCI-H460 cells in presence of O2; type: functional, cell-based
NCI-H460 [2] = experiment: Antiproliferative activity against human NCI-H460 cells in presence of N2; type: functional, cell-based
SK-OV-3 = experiment: Cytotoxicity against human SKOV3 cells; type: functional, cell-based
HT-29 [3] = experiment: Cytotoxicity against human HT-29 cells; type: functional, cell-based
NCI-H460 [4] = experiment: Antiproliferative activity against human NCI-H460 cells; type: functional, cell-based
HT-29 [5] = experiment: Cytotoxicity against human HT-29 cells assessed as reduction in cell viability after 2 hrs by Alamar blue assay; type: functional, cell-based; details: HT-29, 2 h
NCI-H460 [6] = experiment: Cytotoxicity against human NCI-H460 cells assessed as reduction in cell viability after 2 hrs by Alamar blue assay; type: functional, cell-based; details: NCI-H460, 2 h
[7] = target: Epidermal growth factor receptor (Homo sapiens, UniProt P00533); experiment: Inhibition of erbB1 (unknown origin) using FRET-capable peptide substrate by FRET assay
Epidermal growth factor receptor, sequence (P00533 whole entry): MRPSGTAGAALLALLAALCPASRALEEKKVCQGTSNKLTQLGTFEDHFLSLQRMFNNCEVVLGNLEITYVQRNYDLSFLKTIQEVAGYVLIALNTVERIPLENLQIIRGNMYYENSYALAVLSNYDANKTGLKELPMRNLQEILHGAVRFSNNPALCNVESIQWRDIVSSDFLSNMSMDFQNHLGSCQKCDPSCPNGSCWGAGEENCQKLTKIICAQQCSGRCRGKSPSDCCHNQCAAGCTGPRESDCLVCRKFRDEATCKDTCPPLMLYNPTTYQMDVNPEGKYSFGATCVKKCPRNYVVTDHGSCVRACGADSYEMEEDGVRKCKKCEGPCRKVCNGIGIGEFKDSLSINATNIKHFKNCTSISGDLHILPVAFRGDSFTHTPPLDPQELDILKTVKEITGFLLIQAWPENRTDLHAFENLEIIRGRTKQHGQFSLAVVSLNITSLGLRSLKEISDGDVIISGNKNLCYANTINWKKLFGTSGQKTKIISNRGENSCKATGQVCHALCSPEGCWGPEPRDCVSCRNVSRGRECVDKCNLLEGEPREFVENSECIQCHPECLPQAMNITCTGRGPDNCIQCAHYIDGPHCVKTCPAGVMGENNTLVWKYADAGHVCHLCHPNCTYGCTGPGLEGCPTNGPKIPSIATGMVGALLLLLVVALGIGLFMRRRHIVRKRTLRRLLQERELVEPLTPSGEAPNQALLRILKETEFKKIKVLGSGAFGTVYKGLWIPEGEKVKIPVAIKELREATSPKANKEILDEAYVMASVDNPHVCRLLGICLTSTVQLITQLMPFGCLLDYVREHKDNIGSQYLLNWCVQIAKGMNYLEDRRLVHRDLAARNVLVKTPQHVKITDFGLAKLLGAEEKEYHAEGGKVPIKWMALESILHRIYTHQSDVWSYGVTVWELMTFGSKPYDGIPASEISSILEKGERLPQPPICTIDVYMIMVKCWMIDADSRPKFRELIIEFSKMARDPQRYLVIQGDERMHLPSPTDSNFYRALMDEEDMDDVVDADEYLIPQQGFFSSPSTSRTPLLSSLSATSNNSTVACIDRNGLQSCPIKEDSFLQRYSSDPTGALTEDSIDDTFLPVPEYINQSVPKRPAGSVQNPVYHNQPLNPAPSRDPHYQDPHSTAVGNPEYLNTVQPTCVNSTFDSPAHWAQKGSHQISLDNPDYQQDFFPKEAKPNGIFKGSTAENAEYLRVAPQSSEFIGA

[8] = Cytotoxicity against human MiaPaCa cells assessed as reduction in cell viability after 2 hrs by Alamar blue assay; type: functional, cell-based; details: MIA PaCa-2, 2 h
NCI-H460 [9] = experiment: Cytotoxicity against human NCI-H460 cells assessed as reduction in cell viability after 2 hrs under normoxic conditions by Alamar blue assay; type: functional, cell-based; details: NCI-H460, 2 h
NCI-H460 [10] = experiment: Cytotoxicity against human NCI-H460 cells assessed as reduction in cell viability after 2 hrs under hypoxic conditions by Alamar blue assay; type: functional, cell-based; details: NCI-H460, 2 h
Hep 3B2 [11] = experiment: Cytotoxicity against human Hep3B cells after 24 hrs under hypoxic condition by MTS assay; type: functional, cell-based
Hep 3B2 [12] = experiment: Cytotoxicity against human Hep3B cells after 24 hrs by MTS assay; type: functional, cell-based
[13] = tested on: Mycobacterium tuberculosis; experiment: Antitubercular activity against Mycobacterium tuberculosis H37Ra after 8 days by visual analysis; type: functional; details: 192 h
[14] = target: T1, Oxygen-insensitive NAD(P)H nitroreductase (Escherichia coli K-12, UniProt P38489); experiment: Susbtrate activity at Escherichia coli nitroreductase assessed as half life; type: ADME
T1 sequence (P38489 whole entry): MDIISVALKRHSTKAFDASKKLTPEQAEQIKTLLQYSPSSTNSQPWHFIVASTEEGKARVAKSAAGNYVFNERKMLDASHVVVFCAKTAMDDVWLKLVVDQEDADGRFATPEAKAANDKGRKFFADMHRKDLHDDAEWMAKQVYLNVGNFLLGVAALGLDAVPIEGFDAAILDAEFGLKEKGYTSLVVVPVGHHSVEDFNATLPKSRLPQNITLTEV

Quinone oxidoreductase = target: T2, Quinone oxidoreductase (Homo sapiens, UniProt Q08257); experiment: Inhibition of human Quinone oxidoreductase
T2 sequence (Q08257 whole entry): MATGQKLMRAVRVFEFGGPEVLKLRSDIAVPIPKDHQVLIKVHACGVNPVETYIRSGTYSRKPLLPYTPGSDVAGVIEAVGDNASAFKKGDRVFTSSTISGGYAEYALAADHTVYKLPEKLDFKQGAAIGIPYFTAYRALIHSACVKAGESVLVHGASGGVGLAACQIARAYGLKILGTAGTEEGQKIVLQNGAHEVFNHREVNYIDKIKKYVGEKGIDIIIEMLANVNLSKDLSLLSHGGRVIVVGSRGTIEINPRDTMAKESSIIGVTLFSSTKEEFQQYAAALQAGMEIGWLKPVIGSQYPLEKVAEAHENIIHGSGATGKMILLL

## NC(=O)c1cc(N2CC2)ncc1[N+](=O)[O-]
NCI-H460 [1]
  pIC50: 4.71
NCI-H460 [2]
  pIC50: 5.96

## COc1cc2cc(C(=O)N3CC(CCl)c4c3cc([N+](=O)[O-])c3c(C(C)=O)cccc43)[nH]c2c(OC)c1OC (stereo unspecified)
SK-OV-3
  pIC50: 6.30
HT-29 [3]
  pIC50: 6.17

## N#Cc1cc(COP(=O)(NCCBr)NCCBr)sc1[N+](=O)[O-]
NCI-H460 [1]
  pIC50: 8.00
NCI-H460 [2]
  pIC50: 8.22
NCI-H460 [4]
  pIC50: 7.70

## CC(=O)O[C@H]1C(=O)[C@@]2(C)[C@H]([C@H](OC(=O)c3ccccc3)[C@]3(O)C[C@H](OC(=O)[C@H](OC(=O)N(C)CCN(C)C(=O)OCc4ccc([N+](=O)[O-])c(Oc5ccc6ncccc6c5)c4)[C@@H](NC(=O)c4ccccc4)c4ccccc4)C(C)=C1C3(C)C)[C@]1(OC(C)=O)CO[C@@H]1C[C@@H]2O
NCI-H460 [4]
  pIC50: 7.52

## CC#Cc1c(OC)ccc2c(C(=O)c3cc(OC)c(OC)c(OC)c3)nn(C[N+](C)(C)Cc3c(CC)nc([N+](=O)[O-])n3C)c12
HT-29 [5]
  pIC50: 8.05
NCI-H460 [6]
  pIC50: 7.38

## Cn1ncc([N+](=O)[O-])c1C[N+](C)(C)C/C=C/C(=O)Nc1ccc2ncnc(Nc3cccc(Br)c3)c2c1
[7]
  pIC50: 9.25 to 9.66

## CC#Cc1c(OC)ccc2c(C(=O)c3cc(OC)c(OC)c(OC)c3)nn(C[N+](C)(C)Cc3c(Br)nc([N+](=O)[O-])n3C)c12
HT-29 [5]
  pIC50: 8.00
NCI-H460 [6]
  pIC50: 7.55
[8]
  pIC50: 7.55

## C[N+](C)(C/C=C/C(=O)Nc1ccc2ncnc(Nc3cccc(Br)c3)c2c1)Cc1ccccc1[N+](=O)[O-]
[7]
  pIC50: 9.25 to 9.66

## COc1cccc2c1C(=O)c1c(O)c3c(c(O)c1C2=O)C[C@@](O)(C(C)=O)C[C@@H]3O[C@H]1C[C@H](n2ccnc2[N+](=O)[O-])[C@H](O)[C@H](C)O1
NCI-H460 [9]
  pIC50: 5.64
NCI-H460 [10]
  pIC50: 7.92

## CC#Cc1c(OC)ccc2c(C(=O)c3cc(OC)c(OC)c(OC)c3)nn(C[N+](C)(C)Cc3ccc([N+](=O)[O-])o3)c12
HT-29 [5]
  pIC50: 7.92
NCI-H460 [6]
  pIC50: 7.35

## CC#Cc1c(OC)ccc2c(C(=O)c3cc(OC)c(OC)c(OC)c3)nn(C[N+](C)(C)Cc3c(-c4ccc(F)cc4)nc([N+](=O)[O-])n3C)c12
HT-29 [5]
  pIC50: 7.60
NCI-H460 [6]
  pIC50: 7.51
[8]
  pIC50: 7.60

## CC#Cc1c(OC)ccc2c(C(=O)c3cc(OC)c(OC)c(OC)c3)nn(Cn3cc[n+](Cc4ccc([N+](=O)[O-])o4)c3)c12
HT-29 [5]
  pIC50: 9.00
NCI-H460 [6]
  pIC50: 7.85

## CC(=O)O[C@H]1C(=O)[C@@]2(C)[C@H]([C@H](OC(=O)c3ccccc3)[C@]3(O)C[C@H](OC(=O)[C@H](OC(=O)N(C)CCN(C)C(=O)OC(C)c4ccc([N+](=O)[O-])c(Oc5ccc6ncccc6c5)c4)[C@@H](NC(=O)c4ccccc4)c4ccccc4)C(C)=C1C3(C)C)[C@]1(OC(C)=O)CO[C@@H]1C[C@@H]2O (stereo partly specified)
NCI-H460 [4]
  pIC50: 7.52

## Cc1cc(COP(N)(=O)N(CCCl)CCCl)ccc1[N+](=O)[O-] (stereo unspecified)
SK-OV-3
  pIC50: 5.48

## Cn1cnc([N+](=O)[O-])c1C[N+](C)(C)C/C=C/C(=O)Nc1ccc2ncnc(Nc3cccc(Br)c3)c2c1
[7]
  pIC50: 9.25 to 9.66

## CN(C)CCOc1ccc2[nH]c(C(=O)N3CC(CCl)c4c3cc([N+](=O)[O-])c3c(C#N)cccc43)cc2c1 (stereo unspecified)
SK-OV-3
  pIC50: 6.77
HT-29 [3]
  pIC50: 6.92

## CC(OP(=O)(NCCBr)NCCBr)c1ccc([N+](=O)[O-])s1 (stereo unspecified)
NCI-H460 [1]
  pIC50: 6.70
NCI-H460 [2]
  pIC50: 7.52
NCI-H460 [4]
  pIC50: 6.30

## COc1ccc(C[C@@H](C)[C@@H](C)Cc2ccc(OCCOCCOCCOCCn3cnc([N+](=O)[O-])c3)c(OC)c2)cc1OC
Hep 3B2 [11]
  pIC50: 4.28
Hep 3B2 [12]
  pIC50: 4.90

## Cn1c(COP(=O)(NCCBr)NCCBr)cnc1[N+](=O)[O-] [EVOFOSFAMIDE]
NCI-H460 [1]
  pIC50: 4.60
NCI-H460 [2]
  pIC50: 5.70
NCI-H460 [4]
  pIC50: < 4.00

## COC(=O)c1cc(COP(N)(=O)N(CCCl)CCCl)ccc1[N+](=O)[O-] (stereo unspecified)
SK-OV-3
  pIC50: 5.68

## COc1ccc(CNC(=O)c2ccc([N+](=O)[O-])o2)cc1OC
[13]
  MIC: 0.2 µM (≈ 0.0613 µg/mL)

## COc1ccc(C[C@@H](C)[C@@H](C)Cc2ccc(OC)c(OCCOCCOCCOCCn3cnc([N+](=O)[O-])c3)c2)cc1OC
Hep 3B2 [11]
  pIC50: 4.19
Hep 3B2 [12]
  pIC50: 4.89

## O=[N+]([O-])c1ccc2c(c1)NP(=O)(N(CCCl)CCCl)NC2 (stereo unspecified)
[14]
  half-life: 7.8 min

## CC#Cc1c(OC)ccc2c(C(=O)c3cc(OC)c(OC)c(OC)c3)nn(C[N+](C)(C)Cc3c(-c4ccccc4)nc([N+](=O)[O-])n3C)c12
HT-29 [5]
  pIC50: 8.22
NCI-H460 [6]
  pIC50: 7.92
[8]
  pIC50: 7.80

## O=[N+]([O-])c1ccc(C2CCOP(=O)(N(CCCl)CCCl)N2)cc1 (stereo unspecified)
Quinone oxidoreductase
  pIC50: 4.32
